ChEMBL document CHEMBL1201862, “PubChem BioAssay data set” (2004)
“And” between values parts separate entries of the source, which are not always exact repeats. Equal values may be shown once.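 Assay format: 96-well plates, 48-hour exposure. GI50 = concentration required for 50% inhibition of growth.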 The source made the active and inactive calls. Cut-off read from the data, not from the text of the source: active = GI50 up to about 1.1 µM and inactive = higher.

Columns and labels:
Test in all cases: DTP human tumour cell line panel, 48 h
[1] = system: RXF 393
[2] = system: LOX IMVI
[3] = system: HT-29
[4] = system: SK-OV-3
[5] = system: ACHN
[6] = system: A498
[7] = system: UACC-62
[8] = system: OVCAR-3
[9] = system: RPMI-8226
[10] = system: COLO 205
[11] = system: NCI-H522
[12] = system: HOP-62
[13] = system: SK-MEL-28
[14] = system: K562
[15] = system: 786-0
[16] = system: SK-MEL-5
[17] = system: NCI-H23
[18] = system: IGROV-1
[19] = system: DU-145
[20] = system: PC-3

Measured: GI50

COc1ccc(C(=O)CC2=Nc3nnc(CCCCCCCc4nnc5n4C(=O)C(CC(=O)c4ccc(OC)cc4)=N5)n3C2=O)cc1
inactive: [1] > 100 µM | [2] > 100 µM | [3] > 100 µM | [4] > 100 µM | [5] > 100 µM | [6] > 100 µM | [7] > 100 µM | [8] > 100 µM | [9] > 100 µM | [10] > 100 µM | [11] > 100 µM | [12] > 100 µM | [13] > 100 µM | [14] > 100 µM | [15] > 100 µM | [16] > 100 µM | [17] > 100 µM | [18] > 100 µM

CCOC(OC1=C(C#N)CCCC1)C(CC)[Se]c1ccccc1 (stereo unspecified)
inactive: [1] 15 µM | [2] 9.25 µM | [3] 29 µM | [4] > 100 µM | [5] 30.1 µM | [6] 13.6 µM | [7] 13.7 µM | [8] 19.9 µM | [9] 16.2 µM | [10] 17.5 µM | [11] 14.7 µM | [12] 59.7 µM | [13] 23.6 µM | [14] 38.9 µM | [15] 17.4 µM | [16] 16.4 µM | [17] 14.3 µM | [18] 20.7 µM

COc1cc(C2C(C(=O)Nc3ccc(Cl)c(Cl)c3)=C(C)NC(C)=C2C(=O)Nc2ccc(Cl)c(Cl)c2)ccc1O
inactive: [1] 2.64 µM | [2] 11.4 µM | [3] 15.1 µM | [4] 14.8 µM | [5] 10.8 µM | [6] 12.2 µM | [8] 9.82 µM | [9] 3.89 µM | [10] 13.3 µM | [11] 3.65 µM | [12] 11 µM | [13] 13.9 µM | [14] 6.68 µM | [15] 12.7 µM | [16] 12.2 µM | [17] 12.5 µM | [18] 14.2 µM

COc1cc2oc(=O)ccc2cc1C1OC(=O)C2OC21C (stereo unspecified)
inactive: [1] > 100 µM | [2] > 100 µM | [3] > 100 µM | [4] > 100 µM | [5] > 100 µM | [7] > 100 µM | [8] > 100 µM | [9] > 100 µM | [10] > 100 µM | [12] > 100 µM | [13] > 100 µM | [19] > 100 µM | [14] > 100 µM | [15] > 100 µM | [16] > 100 µM | [17] > 100 µM | [18] > 100 µM | [20] > 100 µM

CC1OC(OC2C(OC(=O)[C@]34CCC(C)(C)C[C@H]3C3=CC[C@@H]5[C@@]6(C)CC[C@H](OC7OC(C(=O)O)C(O)C(O)C7O)C(C)(C)[C@@H]6CC[C@@]5(C)[C@]3(C)C[C@H]4O)OCC(O)C2O)C(O)C(O)C1OC1OCC(O)C(O)C1O (stereo partly specified)
inactive: [1] 15.7 µM and 18.5 µM | [2] 15.5 µM and 10.7 µM | [3] 7.62 µM and 5.18 µM | [4] 16.8 µM and 18.9 µM | [5] 9.35 µM | [6] 2.54 µM and 1.72 µM | [7] 18.5 µM and 16 µM | [8] 15.3 µM and 17.7 µM | [9] 12.1 µM and 16.8 µM | [10] 3.64 µM and 2.32 µM | [11] 10.2 µM and 6.21 µM | [12] 17.7 µM and 14.4 µM | [19] 15.3 µM and 13.9 µM | [14] 16.4 µM and 14.6 µM | [15] 14.8 µM and 12.6 µM | [16] 16.8 µM and 18.9 µM | [17] 5.31 µM and 6.5 µM | [18] 15.2 µM and 13 µM

O=c1[nH]n(Cc2ccccc2Cl)c2ccc([N+](=O)[O-])cc12
inactive: [1] 23.3 µM | [2] > 100 µM | [3] 72.9 µM | [5] 33.3 µM | [6] 22.3 µM | [7] 43.4 µM | [8] 35.9 µM | [9] 45.1 µM | [10] > 100 µM | [11] 36.1 µM | [12] 75.9 µM | [13] 55.8 µM | [19] > 100 µM | [14] 29 µM | [15] 46.6 µM | [16] 12.6 µM | [17] 49.8 µM | [18] 61.9 µM

Nc1cccc(Nc2nc3ccccc3nc2NS(=O)(=O)c2ccccc2)c1
inactive: [1] 18.3 µM | [2] 22.7 µM | [3] 27.1 µM | [4] 30.4 µM | [5] 27.5 µM | [7] 20.7 µM | [8] 17.7 µM | [9] 16.7 µM | [10] 15.8 µM | [12] 26.7 µM | [13] 18.3 µM | [19] 31.5 µM | [14] 21.1 µM | [15] 29 µM | [16] 15.4 µM | [17] 12.9 µM | [18] 24.5 µM | [20] 19.5 µM

Cc1cc(OC(=O)Nc2ccc(Cl)cc2)ccc1C(=S)Nc1ccccc1
inactive: [2] 29.3 µM | [3] 24.5 µM | [4] > 100 µM | [5] 18.7 µM | [6] 96.6 µM | [7] 3.85 µM | [8] 50.6 µM | [9] > 100 µM | [10] 40.6 µM | [11] 21.6 µM | [12] > 100 µM | [13] 71.1 µM | [14] 6.49 µM | [15] 80 µM | [16] 28 µM | [18] > 100 µM | [20] > 100 µM

CCc1n[nH]c(=O)n1CCCCCCCCCCCCn1c(CC)n[nH]c1=O
inactive: [1] 37 µM | [2] 24.8 µM | [3] 32.7 µM | [4] 62.4 µM | [5] 25.2 µM | [6] 29.2 µM | [7] 18.3 µM | [8] 37.8 µM | [9] 18.6 µM | [10] 24.2 µM | [11] 26.2 µM | [12] 56.6 µM | [14] 17.9 µM | [15] 35.5 µM | [16] 16.1 µM | [17] 20.2 µM | [18] 29.5 µM | [20] 27.5 µM

O=C(NCCNCCNC(=O)C(F)(F)F)C(F)(F)F
inactive: [1] > 100 µM | [2] > 100 µM | [3] > 100 µM | [4] > 100 µM | [5] > 100 µM | [7] > 100 µM | [8] > 100 µM | [9] > 100 µM | [10] > 100 µM | [12] > 100 µM | [13] > 100 µM | [19] > 100 µM | [14] > 100 µM | [15] > 100 µM | [16] > 100 µM | [17] > 100 µM | [18] > 100 µM | [20] > 100 µM

CCOC(OC1=C(C#N)CCC1)C(C)[Se]c1ccccc1 (stereo unspecified)
inactive: [1] 18 µM | [2] 10 µM | [3] 42.2 µM | [4] > 100 µM | [5] 32.1 µM | [6] > 100 µM | [7] 18.5 µM | [8] 18.1 µM | [9] 23.3 µM | [10] 27.5 µM | [11] 13.5 µM | [12] > 100 µM | [13] 40.6 µM | [14] 55.6 µM | [15] 14.4 µM | [16] 15.8 µM | [17] 12.9 µM | [18] 25.8 µM

CC1CC(=O)C(C(O)CC2CC(=O)N(c3ccccc3)C(=O)C2)C(C)C1 (stereo unspecified)
inactive: [1] > 100 µM | [2] > 100 µM | [3] > 100 µM | [4] > 100 µM | [5] > 100 µM | [6] > 100 µM | [7] > 100 µM | [8] > 100 µM | [9] > 100 µM | [10] > 100 µM | [11] > 100 µM | [12] > 100 µM | [13] > 100 µM | [14] > 100 µM | [15] > 100 µM | [17] > 100 µM | [18] > 100 µM

COC(=O)C1=C(C(=O)OC)C2(C)CCC(=O)C1O2 (stereo unspecified)
inactive: [1] > 10 µM | [2] > 10 µM | [3] > 10 µM | [4] > 10 µM | [5] > 10 µM | [6] > 10 µM | [7] > 10 µM | [8] > 10 µM | [9] > 10 µM | [10] > 10 µM | [12] > 10 µM | [13] > 10 µM | [19] > 10 µM | [14] > 10 µM | [15] > 10 µM | [16] > 10 µM | [17] > 10 µM | [18] > 10 µM | [20] > 10 µM

COC(=O)C(Cc1cc(OC)c(OC)c(OC)c1)c1ccc(OC)cc1 (stereo unspecified)
inactive: [1] > 100 µM | [2] 79.3 µM | [3] > 100 µM | [5] > 100 µM | [6] > 100 µM | [7] > 100 µM | [8] 95.7 µM | [9] 44.7 µM | [10] > 100 µM | [11] 90.4 µM | [12] > 100 µM | [13] > 100 µM | [14] 88.9 µM | [15] > 100 µM | [16] 45 µM | [18] > 100 µM

COc1ccc(/C=C/c2cc(OC)cc(OC)c2)cc1 [TRISMETHOXYRESVERATROL]
inactive: [1] 3.05 µM | [2] 6.7 µM | [3] 3.88 µM | [4] 4.14 µM | [5] 7.08 µM | [6] 6.18 µM | [7] 3.56 µM | [8] 3.3 µM | [9] 3.56 µM | [10] 3.41 µM | [11] 2.68 µM | [12] 4.92 µM | [13] 3.82 µM | [14] 4.33 µM | [15] 9.66 µM | [16] 4.23 µM | [17] 6.98 µM | [18] 6.44 µM
